Measurements published in patent US5399697A, “N,N',N'-trisubstituted-5-bisaminomethylene-1,3-dioxane-4,6-dione inhibitors of acyl-CoA:cholesterol-acyl transferase” (American Home Products Corporation, priority 1993, dated 1995).
Where two headings read alike, the source gives them in different places.

System: acyl-coenzyme A: cholesterol acyltransferase
Assay: Inhibition of ACAT / intracellular cholesterol esterification in vitro (procedure of Ross et al.)
Type: cell-based

CCCCCCN(CCCCCC)C(Nc1ccc(OC)cc1OC)=C1C(=O)OC(C)(C)OC1=O [Compound 1, 5-[(Dihexylamino)[(2,4-dimethoxyphenyl)amino]methylene]-2,2-dimethyl-1,3-dioxane-4,6-dione]
% Inhibition (50 μM): 65%

CCCCCCN(CCCCCC)C(Nc1ccc(F)cc1)=C1C(=O)OC(C)(C)OC1=O [Compound 3, 5-[(Dihexylamino)[(4-fluorophenyl)amino]methylene]-2,2-dimethyl-1,3-dioxane-4,6-dione]
% Inhibition (50 μM): 77%
IC50 (read-out: IC50): 9000 nM

COc1ccc(NC(NCC2(c3ccccc3)CCCC2)=C2C(=O)OC(C)(C)OC2=O)c(OC)c1 [Compound 9, 5-[[(2,4-Dimethoxyphenyl)amino][[(1-phenylcyclopentyl)methyl]amino]methylene]-2,2-dimethyl-1,3-dioxane-4,6-dione]
% Inhibition (25 μM): 98%
IC50 (read-out: IC50): 5600 nM

COc1ccc(NC(=C2C(=O)OC(C)(C)OC2=O)N(Cc2ccc(CC(C)(C)C)cc2)CC2(c3ccccc3)CCCC2)c(OC)c1 [Compound 10, 5-[[(2,4-Dimethoxyphenyl)amino][[[4-(2,2-dimethylpropyl)phenyl]methyl)][(1-penylcyclo-pentylmethyl]amino]methylene]-2,2-dimethyl-3-dioxane-4,6-dione]
% Inhibition (25 μM): 97%
IC50 (read-out: IC50): 290 nM

COc1ccc(NC(=C2C(=O)OC(C)(C)OC2=O)N(Cc2ccc(CC(C)C)cc2)[C@@H](CO[Si](C)(C)C(C)(C)C)Cc2ccccc2)c(OC)c1 [Compound 11]
IC50: 2800 nM
% Inhibition (25 μM): 98%

COc1ccc(NC(=C2C(=O)OC(C)(C)OC2=O)N(Cc2ccc(CC(C)C)cc2)[C@@H](CO)Cc2ccccc2)c(OC)c1 [Compound 12, (R)-5-[[(2,4-Dimethoxyphenyl)amino][[(1R)1-(hydroxymethyl)-2-phenylethyl][[4-(2-methyl-propyl)phenyl]methyl]amino]methylene]-2,2-dimethyl-1,3-dioxane-4.6-dione]
% Inhibition (25 μM): 96%

CCCCCC(C)N(Cc1ccc(CC(C)C)cc1)C(Nc1cc(C(C)(C)C)c(O)c(C(C)(C)C)c1)=C1C(=O)OC(C)(C)OC1=O (stereo not drawn) [Compound 13]
% Inhibition (25 μM): 99%
IC50 (read-out: IC50): 190 nM

CCCCCCCN(Cc1ccc(C(C)(C)C)cc1)C(Nc1ccc(F)cc1F)=C1C(=O)OC(C)(C)OC1=O [Compound 15]
% Inhibition (50 μM): 63%

CCCCCCCN(Cc1ccc(C(C)(C)C)cc1)C(Nc1c(C)cc(N(C)C)cc1C)=C1C(=O)OC(C)(C)OC1=O [Compound 16, 5-[[[4-(Dimethylamino)-2,6-dimethylphenyl]amino][[[4-(1,1-dimethylethyl)phenyl]methyl]heptylamino]methylene]-2,2-dimethyl-1,3-dioxane-4,6-dione]
% Inhibition (25 μM): 84%
IC50 (read-out: IC50): 980 nM

CCCCCCCN(Cc1ccc(CCCCC)cc1)C(Nc1ccc(C(F)(F)F)cc1)=C1C(=O)OC(C)(C)OC1=O [Compound 17, 5-[[[4-(Trifluoromethyl)phenyl]amino][heptyl[(4-pentylphenyl)methyl]amino]methylene]-2,2-dimethyl-1,3-dioxane-4,6-dione]
% Inhibition (25 μM): 72%

CCCCCCCN(Cc1ccc(CCCCCC)cc1)C(Nc1ccc(F)cc1F)=C1C(=O)OC(C)(C)OC1=O [Compound 18, 5-[[(2,4-Difluorophenyl)amino][[(4-hexylphenyl)methyl]heptylamino]methylene]-2,2-dimethyl-1,3-dioxane-4,6-dione]
% Inhibition (50 μM): 60%

CCCCCCCN(Cc1ccc(C(C)(C)C)cc1)C(Nc1ccc(OCCCC)cc1)=C1C(=O)OC(C)(C)OC1=O [Compound 19]
% Inhibition (25 μM): 98%
IC50 (read-out: IC50): 2400 nM

CCCCCC(C)N(Cc1ccc(C(C)(C)C)cc1)C(Nc1cc(OC)c(OC)c(OC)c1)=C1C(=O)OC(C)(C)OC1=O (stereo not drawn) [Compound 20]
% Inhibition (25 μM): 96%
IC50 (read-out: IC50): 770 nM

CCCCCCCN(Cc1ccc(OCCC(C)C)cc1)C(Nc1cc(OC)c(OC)c(OC)c1)=C1C(=O)OC(C)(C)OC1=O [Compound 23]
% Inhibition (25 μM): 85%
IC50 (read-out: IC50): 3500 nM

CCCCCCCN(Cc1ccc(C(C)(C)C)cc1)C(Nc1ccc(OCCCCC)cc1)=C1C(=O)OC(C)(C)OC1=O [Compound 24]
% Inhibition (25 μM): 96%
IC50 (read-out: IC50): 2300 nM

CCCCCCCN(Cc1ccc(C(C)(C)C)cc1)C(Nc1ccc(OCCCCCC)cc1)=C1C(=O)OC(C)(C)OC1=O [Compound 25, 5-[[[[4-(1,1-Dimethylethyl)phenyl]methyl]heptylamino][[4-(hexyloxy)phenyl]amino]methylene]2,2-dimethyl-3-dioxane-4,6-dione]
% Inhibition (25 μM): 94%
IC50 (read-out: IC50): 500 nM

CCCCCCCN(Cc1ccc(C(C)(C)C)cc1)C(Nc1ccc(OCc2ccccc2)cc1)=C1C(=O)OC(C)(C)OC1=O [Compound 26]
% Inhibition (25 μM): 92%
IC50 (read-out: IC50): 920 nM

CCCCCCCN(Cc1ccc(C(C)(C)C)cc1)C(Nc1ccc(C(F)(F)F)cc1)=C1C(=O)OC(C)(C)OC1=O [Compound 30, 5-[[[[4-(1,1-Dimethylethyl)phenyl]methyl]heptylamino][[4-(trifluoromethyl)phenyl]amino]-methylene]-2,2-dimethyl-1,3-dioxane-4,6-dione]
% Inhibition (25 μM): 42%

CCCCc1ccc(CN(C(Nc2ccc(OC)cc2OC)=C2C(=O)OC(C)(C)OC2=O)C(C)CCCC(C)(C)O)cc1 (stereo not drawn) [Compound 44, 5-[[[(4-Butylphenyl)methyl](5-hydroxy-1,5-dimethylhexyl)amino][(2,4-dimethoxyphenyl)-amino]methylene]-2,2-dimethyl-1,3-dioxane-4,6-dione]
% Inhibition (25 μM): 82%
IC50 (read-out: IC50): 15000 nM

CC(C)Cc1ccc(CN(C(Nc2ccc(N(C)C)cc2)=C2C(=O)OC(C)(C)OC2=O)C2CCN(Cc3ccccc3)CC2)cc1 [Compound 49, 5-[[[4-(Dimethylamino)phenyl]amino][[[4-(2-methylpropyl)phenyl]methyl][1-(phenylmethyl)-4-piperidinyl]amino]methylene]-2,2-dimethyl-1,3-dioxane-4,6-dione]
% Inhibition (25 μM): 80%
IC50 (read-out: IC50): 4500 nM

COc1ccc(NC(=C2C(=O)OC(C)(C)OC2=O)N(Cc2ccc(CC(C)C)cc2)C(C)CN2CCOCC2)c(OC)c1 (stereo not drawn) [Compound 50, 5-[[(2,4-Dimethoxyphenyl)amino][[1-methyl-2-(4-morpholinyl)ethyl][[4-(2-methylpropyl)-phenyl]methyl]amino]methylene]-2,2-dimethyl-1,3-dioxane-4,6-dione]
% Inhibition (25 μM): 74%

CC(C)Cc1ccc(CN(C(Nc2ccc(N(C)C)cc2)=C2C(=O)OC(C)(C)OC2=O)C(C)CN2CCOCC2)cc1 (stereo not drawn) [Compound 51]
% Inhibition (25 μM): 66%

CCCCCC(C)N(Cc1ccc(CCC(C)C)cc1)C(Nc1ccc(OC)cc1OC)=C1C(=O)OC(C)(C)OC1=O (stereo not drawn) [Compound 56, 5-[[(2,4-Dimethoxyphenyl)amino][[[4-(3-methylbutyl)phenyl]methyl](1-methylhexyl)amino]-methylene]-2,2-dimethyl-1,3-dioxane-4,6-dione]
% Inhibition (25 μM): 97%
IC50 (read-out: IC50): 1400 nM

CCCCCC(C)N(Cc1ccc(CCC(C)C)cc1)C(Nc1ccc(N(C)C)cc1)=C1C(=O)OC(C)(C)OC1=O (stereo not drawn) [Compound 57, 5-[[[4-(Dimethylamino)phenyl]amino][[[4-(3-methylbutyl)phenyl]methyl](1-methylhexyl)-amino]methylene]-2,2-dimethyl-1,3-dioxane-4,6-dione]
% Inhibition (25 μM): 96%
IC50 (read-out: IC50): 410 nM

CCCCCC(C)N(Cc1ccc(OCC(C)C)cc1)C(Nc1ccc(OC)cc1OC)=C1C(=O)OC(C)(C)OC1=O (stereo not drawn) [Compound 58, 5-[[(2,4-Dimethoxyphenyl)amino][(1-methylhexyl)[[4-(2-methylpropoxy)phenyl]methyl]-amino]methylene]-2,2-dimethyl-1,3-dioxane-4,6-dione]
% Inhibition (25 μM): 99%
IC50 (read-out: IC50): 550 nM

CCCCC(CC)N(Cc1ccc(CC(C)(C)C)cc1)C(Nc1ccc(OC)cc1OC)=C1C(=O)OC(C)(C)OC1=O (stereo not drawn) [Compound 60, 5-[[(2,4-Dimethoxyphenyl)amino][[[4-(2,2-dimethylpropyl)phenyl]methyl](1-ethylpentyl)amino]-methylene]-2,2-dimethyl-1,3-dioxane-4,6-dione]
% Inhibition (25 μM): 99%
IC50 (read-out: IC50): 540 nM

CCCCCC(C)N(Cc1ccc(CCC(C)C)cc1)C(Nc1ccc(N(C)C)cc1C)=C1C(=O)OC(C)(C)OC1=O (stereo not drawn) [Compound 61]
% Inhibition (25 μM): 98%
IC50 (read-out: IC50): 160 nM

CCCCC(CC)N(Cc1ccc(CC(C)(C)C)cc1)C(Nc1ccc(N(C)C)cc1)=C1C(=O)OC(C)(C)OC1=O (stereo not drawn) [Compound 62]
% Inhibition (25 μM): 99%
IC50 (read-out: IC50): 640 nM

CCCCCC(C)N(Cc1ccc(OCC(C)C)cc1)C(Nc1ccc(N(C)C)cc1)=C1C(=O)OC(C)(C)OC1=O (stereo not drawn) [Compound 63]
% Inhibition (25 μM): 99%
IC50 (read-out: IC50): 90 nM

CCCCCC(C)N(Cc1ccc(CC(C)(C)C)cc1)C(Nc1ccc(C)cc1C)=C1C(=O)OC(C)(C)OC1=O (stereo not drawn) [Compound 64]
% Inhibition (25 μM): 99%
IC50 (read-out: IC50): 490 nM

CCCCCCCCCCN(Cc1ccc(C(C)(C)C)cc1)C(Nc1ccc(OC)cc1OC)=C1C(=O)OC(C)(C)OC1=O [Compound 65]
% Inhibition (25 μM): 98%
IC50 (read-out: IC50): 2300 nM

CCCCC(CC)N(Cc1ccc(CC(C)(C)C)cc1)C(Nc1ccc(N(C)C)cc1C)=C1C(=O)OC(C)(C)OC1=O (stereo not drawn) [Compound 66, 5-[[[4-(Dimethylamino)-2-methylphenyl]amino][[[4-(2,2-dimethylpropyl)phenyl]methyl](1-ethylpentyl)amino]methylene]-2,2-dimethyl-1,3-dioxane-4,6-dione]
% Inhibition (25 μM): 98%
IC50 (read-out: IC50): 190 nM

CCCCCCCN(Cc1ccc(C(C)(C)C)cc1)C(Nc1ccc(F)cc1)=C1C(=O)OC(C)(C)OC1=O [Compound 67]
% Inhibition (50 μM): 89%
IC50 (read-out: IC50): 4500 nM

CCCCCC(C)N(Cc1ccc(OCC(C)C)cc1)C(Nc1ccc(C)cc1C)=C1C(=O)OC(C)(C)OC1=O (stereo not drawn) [Compound 68]
% Inhibition (25 μM): 98%
IC50 (read-out: IC50): 280 nM

CCCCCCCN(Cc1ccc(C(C)(C)C)cc1)C(Nc1cc(OC)c(OC)c(OC)c1)=C1C(=O)OC(C)(C)OC1=O [Compound 69]
% Inhibition (25 μM): 98%
IC50 (read-out: IC50): 2800 nM

CCCCCCCC/C=C\CCCCCCCCN(Cc1ccc(C(C)(C)C)cc1)C(Nc1ccc(OC)cc1OC)=C1C(=O)OC(C)(C)OC1=O [Compound 70, 5-[[(2,4-Dimethoxyphenyl)amino][[[4-(1,1-dimethylethyl)phenyl]methyl]((Z)-9-octadecenyl)-amino]methylene]-2,2-dimethyl-1,3-dioxane-2,4-dione]
% Inhibition (25 μM): 24%
